# Laboratory results published in publication PMC7277860, “Viridistratins A−C, Antimicrobial and Cytotoxic Benzo[j]fluoranthenes from Stromata of Annulohypoxylon viridistratum (Hypoxylaceae, Ascomycota)” (Biomolecules, 2020).
# What was measured:
# Assay in all cases: MIC serial dilution assay
# Type in all cases: cell-based
# Candida albicans = Candida albicans DSM1665; overnight, 30 °C; reference nystatin 1 mg/mL; read-out: Minimum Inhibitory Concentration (MIC)
# Description: (§1) Compounds 1, 2, 4 and 5 were dissolved in MeOH (1 mg/mL) for the antimicrobial activity assay, while compound 3 was dissolved in MeOH: DMSO 9+1 (1 mg/mL). The solvents were also used as negative controls.
# (§2) Minimum inhibitory concentrations (MIC) were determined in a serial dilution assay, as described previously; a detailed protocol can be found in the Supporting Information. The compounds (1 mg/mL) were diluted to a range of 66.7 to 0.52 µg/mL and incubated with the test organisms overnight. Inhibition of growth was visually evaluated the next day: the MIC is defined as the lowest concentration of the test compound where no growth of the test organism was observed. Various test organisms of fungal and bacterial origin were tested to cover a broad range of microorganisms. This selection is also being used as a standard test panel in our attempts to discover new anti-infectives, as it represents a broad spectrum of pathogens of clinical interest, as well as sensitive indicator strains (bacteria: Bacillus subtilis, Staphylococcus aureus, Micrococcus luteus, Chromobacterium violaceum, Escherichia coli and Pseudomonas aeruginosa; mycobacteria: Mycolicibacterium smegmatis and fungi: Candida albicans, Schizosaccharomyces pombe, Mucor hiemalis, Pichia anomala and Rhodotorula glutinis).
# (§3) Protocol: Antimicrobial Activi ty Assay
# (§4) The assay was conducted as a minimum inhi bitory concentration (MIC) assay in 96-well ro und-bottom mi crotiter pl ate s usi ng the p ar ameter s su mm ari zed i n T a bl e S 1 and as already described i n [S1].
# (§5) Stocks of the test organi sms were generated by growing the organisms o ver ni ght i n 50 mL shaki ng fl asks fi ll ed wi th 25 mL of the growth medi um at 140 rpm (for media and temperatures see Table S1). If the organisms were well grown the ne xt day, which was checked by occurrence of an optical density (OD)>30 of the suspension (OD600 nm for bacteria, OD548 nm for fungi and M. smegma tis) , aliquots of these were stored i n 1.5 mL reaction tube s in a freezer at −80 °C for up to 12 mo nths . Upon use, aliquots were unth awed and the OD of the suspension measured and adjusted by diluting with the respective growth medi um. OD600 nm w as adj usted to 0.01 and OD548 nm to 0.1.
# (§6) Subse que ntly, 150 µL o f the adjusted suspensions were added to all wells of a 96-wel l microtiter pl ate (one test organi sm per plate). In row A, additional 130 µL of suspensions plus 20 µL of the test compounds (1 mg/mL) and the controls (one compound/column) were added. MeOH as well as MeOH:DMSO 9+1 were used as negative controls, while different positive controls (refer ences) were used for the test organisms (see Tabl e S1). Then, starti ng from row A, 150 µ L of the suspension were transferred to the next row, the contents thoroughly mixed, and 150 µ L transferred to the following row.
# (§7) The remaining 150 µ L after row H were discarded. […]
# (§8) compounds, ranging from 66.7 µg/mL i n row A to 0.52 µg/mL i n row H.
# (§9) The microtiter plates were then incubated overnight o n a microplate shaker at 800 rpm at 30 or 37 °C (see Table S1) and were visually evaluated the next day. The MIC is defined as the lowest concentration were no growth of the test organism was o bserved. A lower MIC thus corresponds to a higher antimicrobial activity of the test compound.
# (§10) Table S1: MIC assay ex per i men t parameters test organism strain No. growth incubation positive control (reference) […]
# Candida albicans DSM1665 MYC 3 30 nyst ati n 1.0 mg/mL […]
# (§11) Rhodotorula glutinis DSM10134 MYC 3 30 nyst ati n 1.0 mg/mL
# (§12) 1 MHB: Müller-Hinton Broth (SN X927.1, Ca r l Roth GmbH, Karlsruhe, Germany) 2 7H9+ADC: Middlebrook 7H9 Broth Base + Middlebrook ADC Growth Supplement (SN M0678+M0553, Merck, Darmstadt, Germany)
# (§13) 3 MYC: 1 % w/v, bacto peptone, 1% w/v yeast extract, 2 % w /v glycerol, pH 6.3 [S1] Helaly, S.E.; Ashrafi, S.; Teponno, R.B.; Bernecker, S.; Dababat, A.A.; Maier, W.; Stadler, M.
# (§14) Nematicidal Cyclic Lipodepsipeptides and a Xanthocillin Derivative from a Phaeosphariaceous […]
# Pseudomonas aeruginosa = Pseudomonas aeruginosa PA14; overnight, 37 °C; reference gentamicin 0.1 mg/mL; read-out: Minimum Inhibitory Concentration (MIC)
# Description: as §1, §2, §3, §4, §5, §6, §7, §8, §9, §10
# Pseudomonas a erugi nosa PA14 MHB 1 37 gent amici n 0.1 mg/mL […]
# as §11, §12, §13, §14
# [1] = tested on: Chromobacterium violaceum; conditions: Chromobacterium violaceum DSM30191; overnight, 30 °C; reference oxytetracycline 0.1 mg/mL; read-out: Minimum Inhibitory Concentration (MIC)
# Description: as §1, §2, §3, §4, §5, §6, §7, §8, §9, §10
# Chromobacterium DSM30191 MHB 1 30 oxytetr acyclin 0.1 mg/mL […]
# as §11, §12, §13, §14
# Bacillus subtilis = Bacillus subtilis DSM10; overnight, 30 °C; reference oxytetracycline 1 mg/mL; read-out: Minimum Inhibitory Concentration (MIC)
# Description: as §1, §2, §3, §4, §5, §6, §7, §8, §9, §10
# Bacillus subtilis DSM10 MHB 1 30 oxytetr acyclin 1.0 mg/mL […]
# as §11, §12, §13, §14
# Mucor hiemalis = Mucor hiemalis DSM2656; overnight, 30 °C; reference nystatin 1 mg/mL; read-out: Minimum Inhibitory Concentration (MIC)
# Description: as §1, §2, §3, §4, §5, §6, §7, §8, §9, §10
# Mucor hiemalis DSM2656 MYC 3 30 nyst ati n 1.0 mg/mL […]
# as §11, §12, §13, §14
# Micrococcus luteus = conditions: overnight, 30 °C, reference oxytetracycline 0.1 mg/mL; for MIC: Micrococcus luteus, DSM1790, Micrococcus luteus DSM1790, read-out: Minimum Inhibitory Concentration (MIC)
# Description: as §1, §2, §3, §4, §5, §6, §7, §8, §9, §10
# Micrococcus luteu s DSM1790 MHB 1 30 oxytetr acyclin 0.1 mg/mL […]
# as §11, §12, §13, §14
# Pichia anomala = conditions: Hansenula anomala; Pichia anomala DSM6766; overnight, 30 °C; reference nystatin 1 mg/mL; read-out: Minimum Inhibitory Concentration (MIC)
# Description: as §1, §2, §3, §4, §5, §6, §7, §8, §9, §10
# Pichia anomala DSM6766 MYC 3 30 nyst ati n 1.0 mg/mL
# as §11, §12, §13, §14
Structure (SMILES),MIC (Candida albicans),MIC (Pseudomonas aeruginosa),MIC [1],MIC (Bacillus subtilis),MIC (Mucor hiemalis),MIC (Micrococcus luteus),MIC (Pichia anomala),Minimum Inhibitory Concentration (MIC) (Micrococcus luteus; Micrococcus luteus DSM1790)
"COc1cccc2c3c(ccc12)-c1ccc(O)c2c(O)ccc-3c12 [Compound 2, viridistratin B]",> 66.7 µg/mL,> 66.7 µg/mL,66.7 µg/mL,16.7 µg/mL,4.2 µg/mL,8.3 µg/mL,33.3 µg/mL,
"O=C1CCC(=O)c2c1c(O)cc1c2-c2ccc(O)c3c(O)ccc-1c23 [Compound 5, truncatone C]",> 66.7 µg/mL,> 66.7 µg/mL,> 66.7 µg/mL,66.7 µg/mL,66.7 µg/mL,16.7 µg/mL,> 66.7 µg/mL,
"O=C1C[C@H]2C(=C3CCC(=O)c4c(O)ccc2c43)c2cccc(O)c21 [Compound 4, truncatone A]",> 66.7 µg/mL,> 66.7 µg/mL,> 66.7 µg/mL,> 66.7 µg/mL,> 66.7 µg/mL,16.7 µg/mL,> 66.7 µg/mL,33.3 µg/mL
"Oc1cccc2c3c(ccc12)-c1ccc(O)c2c(O)ccc-3c12 [Compound 1, viridistratin A]",> 66.7 µg/mL,> 66.7 µg/mL,66.7 µg/mL,33.3 µg/mL,66.7 µg/mL,16.7 µg/mL,66.7 µg/mL,
"COc1cccc2c3c(ccc12)-c1ccc(O)c2c(OC)ccc-3c12 [Compound 3, viridistratin C]",> 66.7 µg/mL,> 66.7 µg/mL,> 66.7 µg/mL,> 66.7 µg/mL,> 66.7 µg/mL,,> 66.7 µg/mL,
